Structures can show the parent of a compound that is named as a salt.
Legend:
[1] = crystal formation on standing (sodium salt, five months at 5°-10° C.); assay type: physicochemical; details: standing for over five months at 5°-10° C.
water solubility = assay type: physicochemical; details: for water solubility: 25° C.
[2] = Intracerebral Toxicity in Mice; details: mouse, in vivo, fixed volumes of various concentrations, seven day observation, read-out: LD50 of N-Methylglucamine Salt, Intracerebral (Mice)
Protocol: (§1) Toxicity evaluations were carried out on solutions of the N-methylglucaminesalt of 5-gluconamido-2,4,6-triiodo-N-methylisophthalamic acid by three different techniques and on solutions of the N-methylglucamine salt of 3-acetamido-2,4,6-triiodo-5-trishydroxymethylacetamido-benzoic acid by two different techniques. The techniques utilized are outlined below.
Swiss Albino mice (Charles River) were used. Fixed volumes of solutions of various concentrations of the iodinated compounds were injected intracerebrally via a 27 gauge needle, (1/4 inch length) according to the method of Haley, et al. (Br. J. of Pharmac. 12:12-15, 1957). The animals were observed immediately after injections and daily throughout a seven day observation period. The LD50 values were calculated by the method of Litchfield and Wilcoxon (J. of Pharmac. and Exptl. Therap. 96:99-113, 1949).

[3] = Acute Intravenous Toxicity Studies in Mice; details: mouse, in vivo, lateral tail vein, solutions containing 28.27% iodine, 1 ml./min., seven day observation, read-out: LD50 of N-Methylglucamine Salt, I.V. (Mice)
Protocol: as §1
Swiss Albino mice (Charles River) were dosed in the lateral tail vein with solutions of the iodinated compound containing 28.27% of iodine, injected at the rate of 1 ml./min. […] The LD50 values were calculated by the method of Litchfield and Wilcoxon (J. of Pharmac. and Exptl. Therap. 96:99-113, 1949).

[4] = Intracisternal Toxicity in Rats; set-up: species or system Sprague Dawley (Carworth) rats; details: rat, in vivo, two day observation, read-out: LD50 of N-Methylglucamine Salt, Intracisternal (Rats)
Protocol: as §1
Sprague Dawley (Carworth) rats were used. The method used is a variation of the procedure outlined by Melartin et al. (Invest. Rad. 5:13-21, 1970). After dosing, the animals were housed individually, and observed for immediate reactions and periodically for a two day observation period. The LD50 values were calculated according to the method of Litchfield and Wilcoxon, (J. of Pharmac. and Exptl. Therap. 96:99-115, 1949).

SMILES | LD50 at 168 h [2] [mg/kg] | LD50 at 168 h [3] [mg/kg] | water solubility (water solubility) | also measured
CNC(=O)c1c(I)c(NC(=O)[C@H](O)[C@@H](O)[C@H](O)[C@H](O)CO)c(I)c(C(=O)O)c1I [Example 2, Sodium 5-Gluconamido-2,4,6-triiodo-N-methylisophthalamate] | – | – | – | crystals formed after standing [1]: no crystals formed; solubility (water solubility; water, read-out: solubility of the sodium salt): > 1010 mg/mL
CC(=O)Nc1c(I)c(NC(=O)C(CO)(CO)CO)c(I)c(C(=O)O)c1I [N-methylglucamine salt of 3-acetamido-2,4,6-triiodo-5-trishydroxymethylacetamido-benzoic acid] | 150 | 6000 | – | –
CC(=O)Nc1c(I)c(NC(=O)C(CO)(CO)CO)c(I)c(C(=O)O)c1I [Example 4, sodium salt of 3-acetamido-2,4,6-triiodo-5-trishydroxymethylacetamido-benzoic acid] | – | – | 63.5-66 % w/v | –
CNC(=O)c1c(I)c(NC(=O)[C@H](O)[C@@H](O)[C@H](O)[C@H](O)CO)c(I)c(C(=O)O)c1I [N-methylglucaminesalt of 5-gluconamido-2,4,6-triiodo-N-methylisophthalamic acid] | 620 | 5200 | – | LD50 at 48 h [4]: 355 mg/kg
CC(=O)Nc1c(I)c(NC(=O)C(CO)(CO)CO)c(I)c(C(=O)O)c1I [Example 3, 3-Acetamido-2,4,6-triiodo-5-(trishydroxymethyl)acetamido-benzoic Acid] | – | – | 2-2.5 % w/v | –

From patent US4160015A, “2,4,6-Triiodobenzoic acid derivatives and their use as x-ray contrast agents” (priority 1978, dated 1979)
